# Results published in patent US9006452B2, “Method for imaging zinc activation within a mitochondrion using a two-photon fluorescent probe, and method for manufacturing the two-photon fluorescent probe” (AJOU University Industry-Academic Cooperation Foundation, priority 2011, dated 2015).
# Columns and labels:
# [1] = Optical and physical properties of the two-photon fluorescent probe in MOPS buffer; format: physicochemical; conditions: absence of Zn2+
# Method: In order to investigate optical and physical properties of the two-photon fluorescent probe (SZn-Mito), the following experiment was carried out by using a MOPS (3-(N-morpholino)propane sulfonic acid) buffer.
# (§1) It was predicted as a result of blocking the photo-induced electron transfer (PeT) process caused by complexation with metal ions.
# [2] = One- and two-photon fluorescence titration with free Zn2+ (dissociation constant, fluorescence enhancement factor); format: binding
# Method: as §1
# As a result of measuring a fluorescence increase factor (FEF=(F−Fmin)/Fmin) value of the two-photon fluorescent probe (SZn-Mito) by one- and two-photon processes, the FEF value was represented as 7 in the presence of excessive zinc ions (Table 1).
# MOPS (4-morpholinepropanesulfonic acid) buffers (30 mM, pH 7.2, 0.1 M KCl) including varying amounts of ZnSO4 and 10 mM EGTA (ethylene glycol-bis(2-aminoethylether)-N,N,N′,N′-tetraacetic acid) were prepared.
# The concentration of free Zn^2+ ([Zn^2+]free) was calculated from KZn-EGTA^app,[EGTA] total, and [Zn^2+]total by using following Equation 1:
# After that, the stability constant of a Zn^2+ complex of EGTA (KZn-EGTA) was obtained by a conventional method known in the art. As a result, for EGTA (pH 7.2, 0.1 M KCl, 25[…]), pK1=9.40, pK2=8.79, pK3=2.70, and log KZn-EGTA=12.6 were obtained.
# All protonation constants at 0.1 M ion strength workout were corrected upward by 0.11, [EGTA]total was fixed at 10 mM, and [Zn^2+]total was in the range from 0 to 9.5 mM.
# In order to clearly determine a dissociation constant of the two-photon fluorescent probe, FIG. 2c as a fluorescence titration curve was obtained from FIG. 2b by using following Equation 2.
# wherein F is a fluorescence intensity. Fmax is a maximum fluorescence intensity, Fo is a fluorescence intensity in the absence of Zn^2+, and [Zn^2+]free is a concentration of free Zn^2+.
# Kd values that well complies with the titration curve (FIG. 2c) according to Equation 2 were calculated by using a commercial Origin software. […] A two-photon excitation fluorescence titration curve was obtained, which was fitted to Equation 2 (FIGS. 2c and 2d).
# [3] = Selectivity for metal cations in MOPS buffer; format: physicochemical; conditions: MOPS buffer pH 7.2, 1.0 μM probe
# Method: The selectivity for metal cations was determined by using the MOPS buffer (30 mM MOPS, 100 mM KCl, 10 mM EGTA, pH 7.2) including the two-photon fluorescent probe. […] However, because there are very little metal ions such as Co^2+, Ni^2+ and Cu^2+ inside the cells, the two-photon fluorescent probe of the present invention has an advantage that it can detect zinc ions (Zn^2+) without the interference caused by competition with other metal ions.
# [4] = Effect of pH on one-photon fluorescence intensity; format: physicochemical; conditions: physiological pH; absence and presence of free Zn2+
# HeLa cells [5] = test: Toxicity test using a CCK-8 kit; format: cell-based
# Excerpt: In order to confirm whether the two-photon fluorescent probe of the present invention can detect intracellular zinc ions, the effect of the two-photon fluorescent probe (SZn-Mito) on the cells was examined by the following toxicity test.
# HeLa cells [6] = test: Light stability of TPEF intensity in labeled HeLa cells; format: cell-based; conditions: exposure 60 min
# [7] = system: zinc ions within the mitochondria of HeLa cells; test: Two-photon microscopy monitoring of zinc ion changes in living HeLa cells; format: cell-based
# Method: TPEF images were collected at a range from 425-575 nm (fs pulses, 760 nm excitation conditions);
# When DTDP (2,2′-dithiodipyridine; […]), reagent capable of inducing dissociation of Zn^2+ ions from Zn^2+-binding proteins, was added to the HeLa cells labeled with the two-photon fluorescent probe (SZn-Mito), the TPEF intensity was increased. When CCCP (carbonyl cyanide m-chlorophenylhydrazone; […]), a compound capable of disrupting a transmembrane potential difference of the mitochondria and increasing the release of cations within the mitochondria, was added thereto, the TPEF intensity was decreased. Also, when the HeLa cells were treated with […] (2-mercaptopyridine N-oxide), a reagent capable of delivering Zn^2+ to the cytoplasm, the TPEF intensity was increased, and when they were treated with CCCP, the TPEF intensity was decreased (FIG. 1).
smiles,measurement,setting,value
CN(CC(=O)NCC[P+](c1ccccc1)(c1ccccc1)c1ccccc1)c1ccc2cc(-c3nc4ccc(NCCN(Cc5ccccn5)Cc5ccccn5)cc4s3)ccc2c1 [SZn-Mito],"λmax(1), one-photon absorption spectra","[1]; 30 mM MOPS, 100 mM KCl, 10 mM EGTA, pH 7.2",388 nm
same,"λmax fl, one-photon emission spectra",[1]; MOPS buffer pH 7.2,500 nm
same,"10^−4 ε, molar excitation coefficient","[1]; MOPS buffer pH 7.2, value is 10^−4 ε",1.87 M^−1cm^−1
same,"F, fluorescence quantum yield","[1]; MOPS buffer pH 7.2, ±15%",0.15
same,detection limit for Zn2+,[2]; from fluorescence titration,nM range
same,"FEF, fluorescence enhancement factor (F−Fmin)/Fmin, one-photon process","[2]; one-photon, presence of excessive zinc ions",7
same,"FEF, fluorescence enhancement factor (F−Fmin)/Fmin, two-photon process","[2]; two-photon, presence of excessive zinc ions",7
same,"fluorescence in the presence of Co2+, Ni2+ and Cu2+",[3],fluorescence was decreased
same,selectivity for Cd2+,[3],relatively high selectivity for Cd^2+
same,"selectivity for Zn2+ compared with Na+, K+, Ca2+, Mg2+, Mn2+, Fe2+ and Fe3+",[3],higher selectivity for Zn^2+
same,reaction to pH (fluorescence intensity),[4],unreacted at physiological pH
same,toxicity to cells (CCK-8 kit),HeLa cells [5],negligible and extremely low toxicity
same,change of TPEF intensity under continuous fs-pulse radiation (light stability),HeLa cells [6],not decreased at all
same,TPEF intensity after treatment with Zn2+ and pyrithione,"[7]; HeLa cells, 100 mM Zn2+ and 100 mM pyrithione",increased
same,TPEF intensity after addition of CCCP,"[7]; labeled HeLa cells after DTDP, CCCP 10 mM",decreased
same,TPEF intensity after addition of DTDP,"[7]; labeled HeLa cells, DTDP 150 mM",increased
